Assay [1] deals with MAGL (Homo sapiens (Human), UniProt Q99685). In words: In vitro competitive activity-based protein profiling (gel-based, FP-Rh or HT-01 probe). It is filed as biochemical. The procedure: In Vitro Competitive Activity-Based Protein Profiling.
Proteomes (human prefrontal cortex or cell membrane fractions) (50 μL, 1.0 mg/mL total protein concentration) were preincubated with varying concentrations of inhibitors at 37° C. After 30 min, FP-Rh or HT-01 (1.0 μL, 50 μM in DMSO) was added and the mixture was incubated for another 30 min at room temperature. Reactions were quenched with SDS loading buffer (15 μL—4×) and run on SDS-PAGE.

Assay [2] concerns the target MAGL (Mus musculus (Mouse), UniProt O35678). In words: In vitro competitive activity-based protein profiling, mouse brain proteome. It is filed as biochemical. The settings on record: for inhibition at 1 µM: mouse; for IC50: mouse brain.
Setting [3] is: human PFC (prefrontal cortex), read-out: MAGL % Inhibition at 1 μM (human PFC).
[4] abbreviates: human PC3, read-out: MAGL Human PC3 (IC50).
Where [5] appears, read: human PFC (prefrontal cortex), read-out: MAGL Human PFC (IC50).

Structures are written as SMILES. Where two headings read alike, the source gives them in different places. Some results are limits rather than exact numbers.

MAGL (Mus musculus (Mouse), UniProt O35678), sequence (O35678 whole entry): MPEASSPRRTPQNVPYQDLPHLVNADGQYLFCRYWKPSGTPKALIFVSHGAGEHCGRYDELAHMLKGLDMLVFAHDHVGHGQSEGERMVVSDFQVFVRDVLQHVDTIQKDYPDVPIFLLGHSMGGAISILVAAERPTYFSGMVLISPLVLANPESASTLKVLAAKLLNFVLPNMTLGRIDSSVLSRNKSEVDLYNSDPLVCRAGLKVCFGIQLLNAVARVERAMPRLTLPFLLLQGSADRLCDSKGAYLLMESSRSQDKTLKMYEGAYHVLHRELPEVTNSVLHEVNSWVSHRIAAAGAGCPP
MAGL (Homo sapiens (Human), UniProt Q99685), sequence (Q99685 whole entry): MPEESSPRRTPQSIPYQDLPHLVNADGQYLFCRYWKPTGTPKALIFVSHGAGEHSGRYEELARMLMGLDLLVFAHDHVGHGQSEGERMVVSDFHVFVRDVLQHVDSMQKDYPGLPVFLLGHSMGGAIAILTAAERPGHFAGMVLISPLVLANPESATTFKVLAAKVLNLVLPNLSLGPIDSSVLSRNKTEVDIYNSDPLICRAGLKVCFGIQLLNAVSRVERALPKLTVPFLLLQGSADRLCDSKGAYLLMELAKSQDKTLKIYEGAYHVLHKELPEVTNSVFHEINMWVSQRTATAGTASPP

What is called inhibition is how much of the control response was suppressed. By IC50 is commonly meant the concentration at which inhibition is half-maximal. Take `CC(C)N1CCn2c(nnc2C(=O)NC2(C)CCN(C(=O)OC(C(F)(F)F)C(F)(F)F)CC2)C1` [Example 36, 1,1,1,3,3,3-Hexafluoropropan-2-yl 4-(7-isopropyl-5,6,7,8-tetrahydro-[1,2,4]triazolo[4,3-a]pyrazine-3-carboxamido)-4-methylpiperidine-1-carboxylate]: the inhibition at 1 µM on MAGL [1] (human PC3, read-out: MAGL % Inhibition at 1 μM (human PC3)) was above 75%; on MAGL [1] (setting [3]), above 75%; on MAGL [2], above 75%. The IC50 at MAGL [1] (setting [4]) was below 100 nM.
In the case of `O=C(OC(C(F)(F)F)C(F)(F)F)N1CCC2(CCCN2Cc2ccc3cccc(Cl)c3n2)CC1` [Example 57, 1,1,1,3,3,3-Hexafluoropropan-2-yl 1-((8-chloroquinolin-2-yl)methyl)-1,8-diazaspiro[4.5] decane-8-carboxylate], on MAGL [1] (setting [4]), the IC50 was below 100 nM. Further, on MAGL [2], the inhibition at 1 µM was above 75% and the IC50 is below 100 nM.
On to `O=C(OC(C(F)(F)F)C(F)(F)F)N1CCC2(CCCN2C(=O)c2cncnc2)CC1` [Example 68, 1,1,1,3,3,3-Hexafluoropropan-2-yl 1-(pyrimidine-5-carbonyl)-1,8-diazaspiro[4.5] decane-8-carboxylate], for which the inhibition at 1 µM on MAGL [1] (setting [3]) is 25 to 75%; at MAGL [2], below 25%.
As for `O=C(OC(C(F)(F)F)C(F)(F)F)N1CCC2(CCCN2C(=O)c2cn3ccccc3n2)CC1` [Example 69, 1,1,1,3,3,3-Hexafluoropropan-2-yl 1-(imidazo[1,2-a]pyridine-2-carbonyl)-1,8-diazaspiro[4.5] decane-8-carboxylate], the IC50 on MAGL [1] (setting [4]) is below 100 nM. On MAGL [2], this compound gave an inhibition at 1 µM above 75% and an IC50 below 100 nM.
With `CC(C)n1cc(C(=O)N2CCCC23CCN(C(=O)OC(C(F)(F)F)C(F)(F)F)CC3)cn1` [Example 71, 1,1,1,3,3,3-Hexafluoropropan-2-yl 1-(1-isopropyl-1H-pyrazole-4-carbonyl)-1,8-diazaspiro[4.5] decane-8-carboxylate], the IC50 at MAGL [1] (setting [4]) was below 100 nM. On MAGL [2], this compound came in with an inhibition at 1 µM above 75% and an IC50 below 100 nM.
Regarding `O=C(OC(C(F)(F)F)C(F)(F)F)N1CCC2(CCCN2C(=O)c2nc3ccccc3s2)CC1` [Example 75, 1,1,1,3,3,3-Hexafluoropropan-2-yl 1-(benzo[d]thiazole-2-carbonyl)-1,8-diazaspiro[4.5] decane-8-carboxylate], at MAGL [1] (setting [4]), the IC50 is below 100 nM. At MAGL [2], this compound returned an inhibition at 1 µM above 75% and an IC50 below 100 nM.
Consider `Cn1ccc(C(=O)N2CCCC23CCN(C(=O)OC(C(F)(F)F)C(F)(F)F)CC3)n1` [Example 79, 1,1,1,3,3,3-Hexafluoropropan-2-yl 1-(1-methyl-1H-pyrazole-3-carbonyl)-1,8-diazaspiro[4.5] decane-8-carboxylate], for which the IC50 at MAGL [1] (setting [4]) is below 100 nM. On MAGL [2], this compound showed an inhibition at 1 µM above 75% and an IC50 of 100 to 1000 nM.
The matching figures for `O=C(OC(C(F)(F)F)C(F)(F)F)N1CCC2(CCCN2C(=O)c2ccc3nccn3c2)CC1` [Example 85, 1,1,1,3,3,3-Hexafluoropropan-2-yl 1-(imidazo[1,2-a]pyridine-6-carbonyl)-1,8-diazaspiro[4.5] decane-8-carboxylate]: below 100 nM, above 75% and 100 to 1000 nM.
As for `O=C(OC(C(F)(F)F)C(F)(F)F)N1CCC2(CCCN2C(=O)c2ccc3scnc3c2)CC1` [Example 86, 1,1,1,3,3.3-Hexafluoropropan-2-yl 1-(benzo[d]thiazole-5-carbonyl)-1,8-diazaspiro[4.5] decane-8-carboxylate], the IC50 at MAGL [1] (setting [4]) and on MAGL [2] was below 100 nM in each case. This compound displayed an inhibition at 1 µM at MAGL [2] above 75%.
For the compound `O=C(OC(C(F)(F)F)C(F)(F)F)N1CCC2(CCCN2C(=O)c2ccc3ocnc3c2)CC1` [Example 87, 1,1,1,3,3.3-Hexafluoropropan-2-yl 1-(benzo[d]oxazole-5-carbonyl)-1,8-diazaspiro[4.5] decane-8-carboxylate], on MAGL [1] (setting [4]), the IC50 is below 100 nM. Moreover, on MAGL [2], the inhibition at 1 µM was above 75% and the IC50 was below 100 nM.
For `O=C(OC(C(F)(F)F)C(F)(F)F)N1CCC2(CCCN2C(=O)c2cnn(Cc3ccccc3)c2)CC1` [Example 88, 1,1,1,3,3,3-Hexafluoropropan-2-yl 1-(1-benzyl-1H-pyrazole-4-carbonyl)-1,8-diazaspiro[4.5] decane-8-carboxylate], the IC50 on MAGL [1] (setting [4]) and at MAGL [2] was below 100 nM each time. At MAGL [2], this compound displayed an inhibition at 1 µM above 75%.
On to `O=C(OC(C(F)(F)F)C(F)(F)F)N1CCC2(CCCN2C(=O)c2ccn(Cc3ccccc3)n2)CC1` [Example 91, 1,1,1,3,3,3-Hexafluoropropan-2-yl 1-(1-benzyl-1H-pyrazole-3-carbonyl)-1,8-diazaspiro[4.5] decane-8-carboxylate], for which, on MAGL [1] (setting [4]), the IC50 is below 100 nM. In addition, on MAGL [2], the inhibition at 1 µM was above 75% and the IC50 was below 100 nM.
As to `O=C(OC(C(F)(F)F)C(F)(F)F)N1CCC2(CCCN2C(=O)c2ccn(-c3ccc(Cl)cc3)n2)CC1` [Example 92, 1,1,1,3,3,3-Hexafluoropropan-2-yl 1-(1-(4-chlorophenyl)-1H-pyrazole-3-carbonyl)-1,8-diazaspiro[4.5] decane-8-carboxylate], the IC50 on MAGL [1] (setting [4]) is below 100 nM. At MAGL [2], the inhibition at 1 µM was above 75% and the IC50 was below 100 nM.
Consider `O=C(OC(C(F)(F)F)C(F)(F)F)N1CCC2(CCCN2C(=O)c2cc3cccc(F)c3s2)CC1` [Example 96, 1,1,1,3,3,3-Hexafluoropropan-2-yl 1-(7-fluorobenzo[b]thiophene-2-carbonyl)-1,8-diazaspiro[4.5] decane-8-carboxylate], for which the IC50 at MAGL [1] (setting [4]), on MAGL [1] (setting [5]) and at MAGL [2] was below 100 nM throughout. For the same compound, the inhibition at 1 µM on MAGL [2] is above 75%.
As for `Cc1c(C(=O)N2CCCC23CCN(C(=O)OC(C(F)(F)F)C(F)(F)F)CC3)[nH]c2ccc(F)cc12` [Example 104, 1,1,1,3,3,3-Hexafluoropropan-2-yl 1-(5-fluoro-3-methyl-1H-indole-2-carbonyl)-1,8-diazaspiro[4.5]decane-8-carboxylate], the IC50 on MAGL [1] (setting [4]) is below 100 nM. At MAGL [2], the inhibition at 1 µM was above 75% and the IC50 was below 100 nM.
As for `O=C(OC(C(F)(F)F)C(F)(F)F)N1CCC2(CCCN2Cc2cc3cc(Cl)cc(Cl)c3[nH]2)CC1` [Example 110, 1,1,1,3,3,3-Hexafluoropropan-2-yl 1-((5,7-dichloro-1H-indol-2-yl)methyl)-1,8-diazaspiro[4.5] decane-8-carboxylate], the IC50 at MAGL [1] (setting [5]) is below 100 nM. At MAGL [2], the inhibition at 1 µM was above 75% and the IC50 is below 100 nM.
Regarding `O=C(OC(C(F)(F)F)C(F)(F)F)N1CCC2(CCCN2Cc2cc3cc(Cl)c(Cl)cc3[nH]2)CC1` [Example 112, 1,1,1,3,3.3-Hexafluoropropan-2-yl 1-((5,6-dichloro-1H-indol-2-yl)methyl)-1,8-diazaspiro[4.5] decane-8-carboxylate], the inhibition at 1 µM at MAGL [1] (setting [3]) and on MAGL [2] was above 75% throughout.
In the case of `CC(C)n1cc(CN2CCC3(CCN(C(=O)OC(C(F)(F)F)C(F)(F)F)CC3)C2)c(-c2cccc(C(=O)O)c2)n1` [Example 113, 3-(4-((8-(((1,1,1,3,3,3-Hexafluoropropan-2-yl)oxy)carbonyl)-2,8-diazaspiro[4.5]decan-2-yl)methyl)-1-isopropyl-1H-pyrazol-3-yl) benzoic acid], the inhibition at 1 µM on MAGL [1] (setting [3]) and on MAGL [2] was 25 to 75% each time.
As to `Cc1cc(Cl)c2nc(CN3CCCC34CCN(C(=O)OC(C(F)(F)F)C(F)(F)F)CC4)cn2c1` [Example 115, 1,1,1,3,3,3-Hexafluoropropan-2-yl 1-((8-chloro-6-methylimidazo [1,2-a]pyridin-2-yl)methyl)-1,8-diazaspiro[4.5] decane-8-carboxylate], the inhibition at 1 µM on MAGL [1] (setting [3]) and at MAGL [2] was above 75% throughout. The IC50 on MAGL [1] (setting [4]) was below 100 nM.
As to `O=C(OC(C(F)(F)F)C(F)(F)F)N1CCC2(CCCN2C(=O)c2cn3cc(C(F)(F)F)cc(Cl)c3n2)CC1` [Example 116, 1,1,1,3,3,3-Hexafluoropropan-2-yl 1-(8-chloro-6-(trifluoromethyl)imidazo[1,2-a]pyridine-2-carbonyl)-1,8-diazaspiro[4.5] decane-8-carboxylate], the inhibition at 1 µM at MAGL [1] (setting [3]) and at MAGL [2] was above 75% in each case.
`O=C(OC(C(F)(F)F)C(F)(F)F)N1CCC2(CCCN2C(=O)c2cnc(Cl)nc2N2CCCC2)CC1` [Example 117, 1,1,1,3,3,3-Hexafluoropropan-2-yl 1-(2-chloro-4-(pyrrolidin-1-yl)pyrimidine-5-carbonyl)-1,8-diazaspiro [4.5]decane-8-carboxylate]: the inhibition at 1 µM at MAGL [1] (setting [3]) and at MAGL [2] was above 75% in each case. Also, the IC50 on MAGL [1] (setting [4]) is below 100 nM.
With `O=C(O)Cn1cc(CN2CCCC23CCN(C(=O)OC(C(F)(F)F)C(F)(F)F)CC3)c(-c2cccc(Cl)c2)n1` [Example 118, 2-(3-(3-Chlorophenyl)-4-((8-(((1,1,1,3,3,3-hexafluoropropan-2-yl)oxy)carbonyl)-1,8-diazaspiro[4.5]decan-1-yl)methyl)-1H-pyrazol-1-yl)acetic acid], the inhibition at 1 µM at MAGL [1] (setting [3]) and on MAGL [2] was above 75% each time. For the same compound, the IC50 at MAGL [1] (setting [4]) is below 100 nM.
In the case of `O=C(OC(C(F)(F)F)C(F)(F)F)N1CCC2(CCCN2C(=O)c2cc(N3CCCC3)nc(Cl)n2)CC1` [Example 119, 1,1,1,3,3,3-Hexafluoropropan-2-yl 1-(2-chloro-6-(pyrrolidin-1-yl)pyrimidine-4-carbonyl)-1,8-diazaspiro [4.5]decane-8-carboxylate], the inhibition at 1 µM on MAGL [1] (setting [3]) and on MAGL [2] was above 75% throughout. The IC50 on MAGL [1] (setting [4]) and at MAGL [1] (setting [5]) was below 100 nM throughout.

(Values after patent publication US11142526B2, “Spirocycle compounds and methods of making and using same” (H. Lundbeck A/S, priority 2017, dated 2021).)
